Results reported in patent US20210154170A1, “METHODS OF TREATING NEUROPATHIC PAIN” (Biogen MA Inc., priority 2018, published 2021).
Like-named read-outs stand apart in the source and are kept apart here.

Tests used:
[1] = Phase 1 ABPM study, pharmacokinetics; format: in vivo, human
Procedure: (§1) This was a Phase 1, randomized, double-blind, placebo-controlled, repeat dose, 2-period cross-over study to investigate the effect of BIIB074 300-400 mg bid on ambulatory blood pressure (ABP) in healthy participants (FIG. 2). The study comprised: screening (to occur a maximum of 30 days before the first baseline assessment); two 36-day treatment periods, each preceded by a baseline visit and separated by a 7-day washout (to minimize possible carry over effects); and a follow-up period of 7-14 days after last dose. Prior to this study, no females had received BIIB074; for this reason, a single dose BIIB074 session at the dose level of 400 mg was also conducted in female participants one week prior to the period 1 baseline visit. Following this session, some participants were predicted to exceed the predefined PK limit (area under the plasma concentration-time curve [AUC] 97 μg·h/mL) when receiving 400 mg bid at steady state. Therefore, in the subsequent phases of the study, all female participants received a lower dose of 300 mg bid (males received 400 mg bid).
The primary endpoint was change in 24 h average SBP and DBP from baseline to day 36 as determined by ABPM. Secondary outcome measures included: change in 24 h average SBP and DBP from baseline to days 4 and 15; change in average SBP and DBP within a 12 h dosing interval from baseline to days 14 and 35 (inpatient); change in 24 h average ambulatory heart rate from baseline to days 4, 15 and 36; proportion of participants whose 24 h SBP and DBP increased by <5, 5-9, 10-14, 15-19, and >20 mm Hg compared with baseline; PK parameters of BIIB074 following a single oral dose in healthy female participants, and following repeated oral doses given twice daily to healthy male and female participants; PK/pharmacodynamic (PD) analyses to examine the correlation between ABP and plasma levels and/or metrics of the systemic exposure of BIIB074.
ABPM data were analyzed using a repeated measures mixed effects model, whereby fixed effects were treatment, day, treatment*day, period, average baseline*day, period adjusted baseline*day, sex and treatment*sex; random effect was subject; and repeated effect was day. All summary statistics were carried out using SAS 8.02 for UNIX running under the Harmonisation of Analysis and Reporting Program (HARP) environment. PK parameters were calculated by standard non-compartmental analysis according to working practices and using Win Nonlin Pro v. 5.2.
(§2) The safety population was the primary analysis population for this study and included all participants who received one or more doses of BIIB074. The PK population was defined as participants in the safety population for whom a PK sample was obtained and analyzed.

healthy participants = test: Phase 1 ABPM study, safety (adverse events, ECG); format: in vivo, human
Procedure: as §1
Safety was assessed through monitoring of adverse events (AEs), vital signs, electrocardiogram (ECG), and laboratory safety tests (including clinical chemistry).
as §2

[2] = Phase 1 study of effect of UGT inhibition by valproic acid on PK of BIIB074; format: in vivo, human; conditions: for AUC(0-inf) / AUC(0-t) / Cmax: human, plasma, oral; for AUC(0-inf): read-out: AUCinf, Geo LS mean; for AUC(0-t): read-out: AUClast, Geo LS mean; for Cmax: read-out: Cmax, Geo LS mean
Excerpt: In clinical practice BIIB074 may be coadministered with UGT inhibitors, which could potentially increase exposure to BIIB074 by reducing the extent of BIIB074 metabolism by UGTs. Valproic acid, which has long been used as a medication to treat seizures and bipolar disorder, is a non specific inhibitor of UGTs and has been used as a probe to determine the effect of UGT inhibition on the PK of compounds that are metabolized by multiple UGTs. Herein, the potential of the UGT inhibitor valproic acid to alter the single dose PK, safety, and tolerability of BIIB074 was assessed to inform the feasibility and safety of coadministration of BIIB074 with compounds known to inhibit UGTs.
• To evaluate the effect of multiple doses of the uridine diphosphate glucuronosyltransferase (UGT) inhibitor valproic acid on the single dose PK of BIIB074. • The primary endpoints that relate to this objective are: maximum observed concentration (Cmax), area under the curve (AUC) from time 0 to infinity (AUCinf), and AUC from time 0 to time of the last measurable concentration (AUClast) for BIIB074. • Other endpoints that relate to the primary objective are the time to reach Cmax (Tmax), time of the last measurable concentration (Tlast), t1/2 apparent clearance (CL/F), and apparent volume of distribution (V/F) for BIIB074.

human hepatocytes = test: Metabolism in human hepatocytes; format: in vitro ADME
[3] = 400 mg single dose, females, N = 22
[4] = 300-400 mg bid repeat dosing, N = 54
[5] = BIIB074 with valproic acid/BIIB074 alone
[6] = single dose BIIB074 with valproic acid

Work on `Cl.NC(=O)[C@@H]1CC[C@H](c2ccc(OCc3ccccc3F)cc2)N1` [Example 1, (5R)-5-(4-{[(2-Fluorophenyl)methyl]oxy}phenyl)-L-prolinamide hydrochloride] yielded an AUCex ([1]; 400 mg single dose, female) of 15.2%, a tmax ([1]; Day 1, 300 mg bid, female) of 1.50 h and a tmax ([1]; Day 14, 300 mg bid, female) of 1.50 h. For the same compound, the “AUC(0-12)” value ([1]; Day 14, 400 mg bid, male) was 32100 (23.5) ng · h/mL, the Cmax ([1]; Day 35, 300 mg bid, female) was 3990 (26.6) ng/mL and the “AUC(0-24) in males (400 mg bid) higher than in females (300 mg bid)” value ([1]; days 14 and 35, on average) was 10%. For the same compound, the “Cmax in males (400 mg bid) higher than in females (300 mg bid)” value ([1]; days 14 and 35, on average) was 11-19%, the “Dose-normalized AUC lower in male than in female participants” value ([1]; repeat dosing, days 14 and 35) was 17-18% and the “Dose-normalized Cmax lower in male than in female participants” value ([1]; repeat dosing, days 14 and 35) was 11-17%. For the same compound, the “Severity of all AEs” value (healthy participants; 400 mg single dose in females) was “mild in nature”, the Diarrhoea (healthy participants; [3]) was 0 n (%) and the Dizziness (healthy participants; [3]) was 5 (23) n (%). The Fatigue (healthy participants; [3]) was 0 n (%), the Headache (healthy participants; [3]) was 6 (27) n (%) and the “Hypersensitivity (allergy symptoms)” value (healthy participants; [3]) was 0 n (%). The Nasopharyngitis (healthy participants; [3]) was 0 n (%), the Nausea (healthy participants; [3]) was 3 (14) n (%) and the Oropharyngeal pain (healthy participants; [3]) was 0 n (%). For the same compound, the Pain in extremity (healthy participants; [3]) was 0 n (%), the “Participants with any AE” value (healthy participants; [3]) was 12 (55) n (%) and the Pyrexia (healthy participants; [3]) was 0 n (%). For the same compound, the Rash (healthy participants; [3]) was 0 n (%), the Vomiting (healthy participants; [3]) was 1 (5) n (%) and the “AEs of moderate intensity” value (healthy participants; 300-400 mg bid repeat dose) was 9 AEs. The “AEs of severe intensity” value (healthy participants; 300-400 mg bid repeat dose) was 2 AEs, the Diarrhoea (healthy participants; [4]) was 1 (2) n (%) and the Dizziness (healthy participants; [4]) was 6 (11) n (%). For the same compound, the Fatigue (healthy participants; [4]) was 2 (4) n (%), the “Hypersensitivity (allergy symptoms)” value (healthy participants; [4]) was 2 (4) n (%) and the Nasopharyngitis (healthy participants; [4]) was 6 (11) n (%). The Nausea (healthy participants; [4]) was 4 (7) n (%), the Oropharyngeal pain (healthy participants; [4]) was 2 (4) n (%) and the Pain in extremity (healthy participants; [4]) was 0 n (%). For the same compound, the “Participants with any AE” value (healthy participants; [4]) was 25 (46) n (%), the Pyrexia (healthy participants; [4]) was 2 (4) n (%) and the Rash (healthy participants; [4]) was 1 (2) n (%). The Vomiting (healthy participants; [4]) was 3 (6) n (%), the Headache (healthy participants; 300-400 mg bid repeat dosing, N = 54, listed as BIIB074, hydrochloride) was 11 (20) n (%) and the Tolerability (healthy participants; 300-400 mg bid, 36 days) was “well tolerated”. For the same compound, the ECG changes (healthy participants; day 1-35) was “no clinically significant ECG changes”, the “Participants withdrawn due to AEs while on BIIB074” value (healthy participants; of 60 enrolled) was 5 participants and the “Serious AEs” value (healthy participants; whole study) was “No serious AEs”. For the same compound, the “AUCinf, Geo LS mean ratio” value [2, 5] was 1.68, the “AUClast, Geo LS mean ratio” value [2, 5] was 1.69 and the “Cmax, Geo LS mean ratio” value [2, 5] was 0.97. It also gave an AUC(0-inf) ([2]; single dose BIIB074 alone) of 16000 ng·h/mL, an AUC(0-t) ([2]; single dose BIIB074 alone) of 15700 ng·h/mL and a Cmax ([2]; single dose BIIB074 alone) of 1310 ng/mL. It also gave an AUC(0-inf) [2, 6] of 26900 ng·h/mL, an AUC(0-t) [2, 6] of 26500 ng·h/mL and a Cmax [2, 6] of 1260 ng/mL. For the same compound, the “Elimination with valproic acid” value ([2]; in vivo) was “prolonged”, the “Exposure (AUC) with valproic acid compared to BIIB074 alone” value ([2]; in vivo) was “increased” and the “Exposure based on AUCinf and AUClast higher with valproic acid than alone” value ([2]; in vivo) was roughly 70%. For the same compound, the “Change in Cmax with valproic acid compared to BIIB074 alone” value ([2]; in vivo, listed as BIIB074, hydrochloride) was “no change”, the “Plasma exposure higher with valproic acid at steady state than alone” value ([2]; single dose) was “approximately 1.7 fold” and the “Main route of metabolism” value (human hepatocytes) was “mainly metabolized by uridine diphosphate glucuronosyltransferases (UGTs)”.
